US7696236B2, “Method of providing pirfenidone therapy to a patient” (InterMune, Inc., priority 2006, dated 2010)

Tests used:
TNF-α = conditions: from macrophages and other cells; Cain et al. 1998; cited from earlier work
[1] = adverse events associated with pirfenidone therapy in patients; type: in vivo, patient; conditions: dosing escalation scheme described herein (up to 2,403 mg per day, full dosage about Day 15)
Method: As an investigational drug, pirfenidone is provided in tablet and capsule forms principally for oral administration. Various formulations have been tested and adopted in clinical trials and other research and experiments. […] Many of these effects can interfere with everyday activities and quality of life. These effects appear to be dose related. The adverse reactions associated with pirfenidone therapy are exacerbated when pirfenidone is administered at these higher doses.
The present invention overcomes the unmet clinical need by providing an improved, optimized dose escalation scheme for the administration of pirfenidone. The dose escalation scheme of the present invention provides pirfenidone in an amount such that the full maximum dosage is not reached for at least one week. In a preferred embodiment, the full maximum dosage of pirfenidone is not reached until about Day 15 of treatment. The method of the present invention allows for a maximum dosage of 2,403 mg of pirfenidone per day to be administered to a patient and also reduces the incidence of adverse events associated with the administration of pirfenidone by more accurately matching dose escalation with tolerance development in the patient. […]

[2] = oral tablet and capsule forms, clinical trials; effects appear to be dose related; cited from earlier work
[3] = tested on: fibrogenic cytokines such as TGF-β1, bFGF, PDGF, and EGF; conditions: Zhang S et al. 1998; cited from earlier work

Compound: Cc1ccc(=O)n(-c2ccccc2)c1 [pirfenidone, 5-methyl-1-phenyl-2-(1H)-pyridone]
- synthesis and release of excessive amounts of TNF-α (TNF-α): blocks
- adverse events, such as somnolence and photosensitivity reaction, as the dosage escalates [1]: decrease
- most common adverse reactions or events associated with pirfenidone therapy [2]: gastrointestinal upset, nausea, fatigue, somnolence, dizziness, headache, and photosensitivity rash
- excessive biosynthesis or release of various fibrogenic cytokines [3]: inhibits
